This note sets out measurements from US8841312B2, “Fused pyridine, pyrimidine and triazine compounds as cell cycle inhibitors” (Amgen Inc., priority 2007, dated 2014).

One experiment has as its target Cdk6/CyclinD3 (Homo sapiens (Human), UniProt Q00534). The experiment can be described thus: Cdk6 kinase inhibition assay with recombinant Cdk6/CyclinD3, Rb substrate, [33P]-ATP filter plate. Type of experiment: biochemical. Conditions: 25 μM ATP, read-out: Cdk 6 IC50. As to the method:
The Cdk4 and Cdk6 inhibitory activity of the compounds is measured with a kinase inhibition assay using recombinant Cdk4/CyclinD1 or Cdk6/CyclinD3 protein complexes. The protein substrate used in the assay is the retinoblastoma protein (Rb). The kinase reactions are carried out in a 96-well filter plate (MSDV N6B50, Millipore). […] The mixture is incubated at room temperature for 1 hour and the proteins precipitated with an equal volume of 20% TCA. The plates are washed with 10% TCA according to the manufacturer's instruction and dried at room temperature. The amount of the phosphorylated Rb is determined with a TopCount (PerkinElmer). The IC50 of a compound is determined by nonlinear regression curve fitting using software program Prism 5 (GraphPad Software).

Another experiment has as its target Cdk4/CyclinD1 (Homo sapiens (Human), UniProt P11802). Put plainly: Cdk4 kinase inhibition assay with recombinant Cdk4/CyclinD1, Rb substrate, [33P]-ATP filter plate. Type of experiment: biochemical. The conditions noted are these: 25 μM ATP, read-out: Cdk 4 IC50. In short, it runs like this: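 Recombinant Cdk4/CyclinD1 or Cdk6/CyclinD3 phosphorylated Rb protein with [33P]-ATP for 1 h at room temperature. Protein was TCA-precipitated on filter plates and bound radioactivity counted. IC50 by nonlinear regression.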

Cdk4/CyclinD1, sequence (P11802 whole entry): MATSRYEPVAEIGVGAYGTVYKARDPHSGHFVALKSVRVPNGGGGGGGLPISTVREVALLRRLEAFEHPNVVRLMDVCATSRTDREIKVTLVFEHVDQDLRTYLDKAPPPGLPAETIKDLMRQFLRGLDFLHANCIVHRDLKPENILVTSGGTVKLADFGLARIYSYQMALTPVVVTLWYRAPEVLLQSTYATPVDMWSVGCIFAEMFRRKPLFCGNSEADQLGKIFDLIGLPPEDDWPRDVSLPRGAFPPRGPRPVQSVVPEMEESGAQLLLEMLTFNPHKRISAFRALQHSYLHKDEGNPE
Cdk4/CyclinD1, sequence (P24385 whole entry partner): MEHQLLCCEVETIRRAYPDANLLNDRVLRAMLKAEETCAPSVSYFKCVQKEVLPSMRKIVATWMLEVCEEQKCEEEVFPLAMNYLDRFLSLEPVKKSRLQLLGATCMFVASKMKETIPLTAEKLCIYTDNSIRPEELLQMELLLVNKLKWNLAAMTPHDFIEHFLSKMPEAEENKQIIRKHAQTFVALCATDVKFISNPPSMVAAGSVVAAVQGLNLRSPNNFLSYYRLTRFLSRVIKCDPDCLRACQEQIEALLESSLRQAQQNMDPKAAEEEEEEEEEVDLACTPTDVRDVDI
Cdk6/CyclinD3, sequence (Q00534 whole entry): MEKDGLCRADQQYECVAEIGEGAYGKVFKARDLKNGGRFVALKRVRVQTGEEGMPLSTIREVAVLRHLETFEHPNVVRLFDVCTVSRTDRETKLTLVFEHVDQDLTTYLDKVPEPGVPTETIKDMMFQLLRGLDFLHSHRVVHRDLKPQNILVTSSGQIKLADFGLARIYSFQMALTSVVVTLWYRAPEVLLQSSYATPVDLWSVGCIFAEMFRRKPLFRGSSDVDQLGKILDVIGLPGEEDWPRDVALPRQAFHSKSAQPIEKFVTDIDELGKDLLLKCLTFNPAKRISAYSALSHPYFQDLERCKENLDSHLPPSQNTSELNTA
Cdk6/CyclinD3, sequence (P30281 whole entry partner): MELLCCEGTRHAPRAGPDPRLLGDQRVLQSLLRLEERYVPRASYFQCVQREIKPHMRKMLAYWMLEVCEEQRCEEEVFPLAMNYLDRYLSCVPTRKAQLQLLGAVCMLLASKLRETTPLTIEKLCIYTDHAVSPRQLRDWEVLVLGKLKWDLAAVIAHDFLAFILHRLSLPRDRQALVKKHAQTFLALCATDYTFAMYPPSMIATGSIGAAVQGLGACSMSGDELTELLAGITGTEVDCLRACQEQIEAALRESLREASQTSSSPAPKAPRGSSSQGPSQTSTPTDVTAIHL

As to `Oc1ccc(-c2ccc(Nc3ncc4c5ccncc5n(C5CCCC5)c4n3)nn2)cn1` [Example 266, 5-(6-((9-Cyclopentyl-9H-pyrido[4′,3′:4,5]pyrrolo[2,3-d]pyrimidin-2-yl)amino)-3-pyridazinyl)-2-pyridinol], the IC50 – broadly, the point on the concentration scale where inhibition reaches its midpoint – at Cdk6/CyclinD3 is 6.5 nM; on Cdk4/CyclinD1, 3.1 nM.
As for `CC1(C)CN(c2ccc(Nc3ncc4c5ccccc5n(C5CCCC5)c4n3)nn2)CCN1` [Example 299], the IC50 at Cdk6/CyclinD3 was 34 nM; at Cdk4/CyclinD1, 60 nM.
In the case of `C[C@H](O)CNc1ccc(Nc2ncc3c4ccncc4n(C4CCCC4)c3n2)nn1` [Example 294], the IC50 on Cdk6/CyclinD3 was determined as 26 nM; at Cdk4/CyclinD1 it was 5.9 nM.
The matching figures for `C[C@H](CO)Nc1ccc(Nc2ncc3c4ccncc4n(C4CCCC4)c3n2)nn1` [Example 295]: 33.7 nM and 6.8 nM.
For `NC1CCN(c2ccc(Nc3ncc4c5ccncc5n(C5CCCC5)c4n3)nc2)CC1` [Example 11], the half-inhibitory concentration (IC50) on Cdk6/CyclinD3 stood at 10 nM; on Cdk4/CyclinD1, 3.1 nM.
On to `OC1CCN(Cc2ccc(Nc3ncc4c5ccncc5n(C5CCCC5)c4n3)nc2)CC1` [Example 215, 1-((6-((9-cyclopentyl-9H-pyrido[4′,3′:4,5]pyrrolo[2,3-d]pyrimidin-2-yl)amino)-3-pyridinyl)methyl)-4-piperidinol], for which the IC50 is 8.2 nM on Cdk6/CyclinD3 and 4.4 nM on Cdk4/CyclinD1.
Regarding `c1cc2c3cnc(Nc4ccc(N5CCNCC5)cn4)nc3n(C3CCOCC3)c2cn1` [Example 20, (5-piperazin-1-yl-pyridine-2-yl)-[9-(tetrahydro-pyran-4-yl)-9H-pyrido-[4′,3′,4,5]pyrrolo[2,3-d]pyrimidin-2-yl]-amine], the IC50 at Cdk6/CyclinD3 was 57 nM; at Cdk4/CyclinD1, 8.1 nM.
In the same order, the values of `CCOC(=O)CN1CCN(c2ccc(Nc3ncc4c5ccncc5n(C5CCCC5)c4n3)nn2)CC1` [Example 217, ethyl (4-(6-((9-cyclopentyl-9H-pyrido[4′,3′:4,5]pyrrolo[2,3-d]pyrimidin-2-yl)amino)-3-pyridazinyl)-1-piperazinyl)acetate] are 9.8 nM and 3.6 nM.
`Fc1ccc(-n2c3cnccc3c3cnc(Nc4ccc(N5CCNCC5)cn4)nc32)cc1` [Example 15]: the values for the IC50 on Cdk6/CyclinD3 and at Cdk4/CyclinD1 were 13 nM and 7.5 nM, respectively.
As for `C[C@@H]1CN(c2ccc(Nc3ncc4c5ccncc5n(C5CCCC5)c4n3)nn2)CCN1` [Example 4], the half-maximal inhibitory concentration (IC50) on Cdk6/CyclinD3 came out at 11.5 nM; at Cdk4/CyclinD1, 3.9 nM.
In the case of `CN(C)C1CC2CCC(C1)N2c1ccc(Nc2ncc3c4ccncc4n(C4CCCC4)c3n2)nc1` (stereo not shown) [Example 158, 9-cyclopentyl-N-(5-(3-(dimethylamino)-8-azabicyclo[321]oct-8-yl)-2-pyridinyl)-9H-pyrido[4′,3′:4,5]pyrrolo[2,3-d]pyrimidin-2-amine], the IC50 amounted to 5.3 nM on Cdk6/CyclinD3 and 5.4 nM on Cdk4/CyclinD1.
On to `NC1CCN(c2ccc(Nc3ncc4c5ccccc5n(C5CCCC5)c4n3)nn2)CC1` [Example 308], for which the IC50 at Cdk6/CyclinD3 amounted to 8 nM; on Cdk4/CyclinD1 it was 11 nM.
As to `c1cc2c3cnc(Nc4ccc(N5CCNCC5)nn4)nc3n(C3CCCC3)c2cn1` [Example 6, 9-cyclopentyl-N-(6-(1-piperazinyl)-3-pyridazinyl)-9H-pyrido[4′,3′:4,5]-pyrrolo[2,3d]pyrimidin-2-amine], the concentration for half-maximal inhibition (IC50) on Cdk6/CyclinD3 amounted to 6.6 nM; on Cdk4/CyclinD1 it was 1.5 nM.
Turning to `O[C@H]1CCCN(c2ccc(Nc3ncc4c5ccncc5n(C5CCCC5)c4n3)nn2)C1` [Example 105], the results for the IC50 on Cdk6/CyclinD3 and on Cdk4/CyclinD1 were 7.1 nM and 6.7 nM, respectively.
As for `c1ccc2c(c1)CCC2n1c2cnccc2c2cnc(Nc3ccc(N4CCNCC4)cn3)nc21` (stereo not shown) [Example 25, (9-Indan-1-yl-9H-pyrido[4′,3′:4,5]pyrrolo[2,3-d]pyrimidin-2-yl)-(5-piperazin-1-yl-pyridin-2-yl)-amine], the IC50 amounted to 38 nM at Cdk6/CyclinD3 and 30 nM on Cdk4/CyclinD1.
Turning to `O[C@H]1CCN(C2CCN(c3ccc(Nc4ncc5c6ccncc6n(C6CCCC6)c5n4)nn3)CC2)C1` [Example 450], the IC50 on Cdk6/CyclinD3 was 16 nM; at Cdk4/CyclinD1, 10 nM.
On to `c1ccc2c(c1)c1cnc(Nc3ccc(N4CCNCC4)cc3)nc1n2C1CCOCC1` [Example 46, (4-piperazin-1-yl-phenyl)-[9-(tetrahydro-pyran-4-yl)-9H-pyrimido[4,5-b]indol-2-yl]-amine], for which the values for the IC50 on Cdk6/CyclinD3 and on Cdk4/CyclinD1 were 0.75 nM and 2 nM, respectively.
For the molecule `CCOC(=O)CN1CCN(Cc2ccc(Nc3ncc4c5ccncc5n(C5CCCC5)c4n3)nc2)CC1` [Example 219, Ethyl (4-((6-((9-cyclopentyl-9H-pyrido[4′,3′:4,5]pyrrolo[2,3-d]pyrimidin-2-yl)amino)-3-pyridinyl)methyl)-1-piperazinyl)acetate], the IC50 was 11 nM at Cdk6/CyclinD3 and 5.3 nM at Cdk4/CyclinD1.
As for `c1cc2c3cnc(Nc4nc(CN5CCNCC5)cs4)nc3n(C3CCCC3)c2cn1` [Example 164, 9-Cyclopentyl-N-(4-(1-piperazinylmethyl)-1,3-thiazol-2-yl)-9H-pyrido-[4′,3′:4,5]pyrrolo[2,3-d]pyrimidin-2-amine], the IC50 at Cdk6/CyclinD3 amounted to 6.2 nM; on Cdk4/CyclinD1, 3.6 nM.
For the molecule `c1ccc2c(c1)c1cnc(Nc3ccc(N4CCNCC4)cn3)nc1n2C1CCCCCC1` [Example 39, (9-Cycloheptyl-9H-pyrimido[4,5-b]indol-2-yl)-(5-piperazin-1-yl-pyridin-2-yl)-amine], the IC50 at Cdk6/CyclinD3 came to 3.1 nM; on Cdk4/CyclinD1, 2.1 nM.
For the molecule `OC[C@@H](O)CNC1CCN(c2ccc(Nc3ncc4c5ccncc5n(C5CCCC5)c4n3)nn2)CC1` [Example 481], the 50% inhibitory concentration (IC50) turned out to be 12 nM on Cdk6/CyclinD3 and 8 nM on Cdk4/CyclinD1.
Take `c1cc2c3cnc(Nc4ccc(C5CCNCC5)cn4)nc3n(C3CCCC3)c2cn1` [Example 257, 9-cyclopentyl-N-(5-(4-piperidinyl)-2-pyridinyl)-9H-pyrido[4′,3′:4,5]pyrrolo[2,3-d]pyrimidin-2-amine]: the values for the IC50 at Cdk6/CyclinD3 and at Cdk4/CyclinD1 were 5.3 nM and 7 nM, respectively.
As for `CC[C@@H](C)n1c2cnccc2c2cnc(Nc3ccc(N4CC[C@@H](O)C4)nn3)nc21` [Example 319], the figures for the IC50 at Cdk6/CyclinD3 and at Cdk4/CyclinD1 were 49 nM and 22 nM, respectively.
On to `COc1ccc(-n2c3cnccc3c3cnc(Nc4ccc(N5CCNCC5)cn4)nc32)cc1` [Example 16], for which the IC50 at Cdk6/CyclinD3 was 21 nM; on Cdk4/CyclinD1 it was 10 nM.
Regarding `COC(=O)CNC1CCN(c2ccc(Nc3ncc4c5ccncc5n(C5CCCC5)c4n3)nc2)CC1` [Example 472], the IC50 on Cdk6/CyclinD3 was 34 nM; on Cdk4/CyclinD1, 24 nM.
For the molecule `O=C(O)CN1CCN(Cc2ccc(Nc3ncc4c5ccncc5n(C5CCCC5)c4n3)nc2)CC1` [Example 220, (4-((6-((9-cyclopentyl-9H-pyrido[4′,3′:4,5]pyrrolo[2,3-d]pyrimidin-2-yl)amino)-3-pyridinyl)methyl)-1-piperazinyl)acetic acid], the IC50 on Cdk6/CyclinD3 worked out at 3.3 nM; on Cdk4/CyclinD1, 1 nM.
As to `O[C@H]1CCCN(C2CCN(c3ccc(Nc4ncc5c6ccncc6n(C6CCCC6)c5n4)nn3)CC2)C1` [Example 452], the IC50 at Cdk6/CyclinD3 stood at 30 nM; at Cdk4/CyclinD1, 7 nM.
As to `COc1cc2c3cnc(Nc4ccc(N5CCNCC5)cn4)nc3n(C3CCCC3)c2cn1` [Example 42, (9-Cyclopentyl-6-methoxy-9H-pyrido[4′,3′:4,5]pyrrolo[2,3-d]pyrimidin-2-yl)-(5-piperazin-1-yl-pyridin-2-yl)-amine], the IC50 on Cdk6/CyclinD3 is 500 nM; at Cdk4/CyclinD1 it was 237 nM.
Regarding `CC[C@@H](C)n1c2cnccc2c2cnc(Nc3ccc(N4CCN[C@@H](C)C4)cn3)nc21` [Example 321], the IC50 on Cdk6/CyclinD3 is 11 nM; at Cdk4/CyclinD1, 7 nM.
`O=C(O)CNC1CCN(c2ccc(Nc3ncc4c5ccncc5n(C5CCCC5)c4n3)nc2)CC1` [Example 477]: the concentration for half-maximal inhibition (IC50) came out at 5.1 nM at Cdk6/CyclinD3 and 2 nM at Cdk4/CyclinD1.
Regarding `FC(F)(F)CNC1CCN(c2ccc(Nc3ncc4c5ccncc5n(C5CCCC5)c4n3)nn2)CC1` [Example 456], the figures for the IC50 at Cdk6/CyclinD3 and on Cdk4/CyclinD1 were 380 nM and 110 nM, respectively.
As to `O=C(c1ccc(Nc2ncc3c4ccncc4n(C4CCCC4)c3n2)nc1)N1CCNCC1` [Example 221, 9-cyclopentyl-N-(5-(1-piperazinylcarbonyl)-2-pyridinyl)-9H-pyrido[4′,3′:4,5]pyrrolo[2,3-d]pyrimidin-2-amine], the IC50 on Cdk6/CyclinD3 came out at 8 nM; at Cdk4/CyclinD1, 1.4 nM.
With `OCCNC1CCN(c2ccc(Nc3ncc4c5ccncc5n(C5CCCC5)c4n3)nn2)CC1` [Example 438], the IC50 turned out to be 12 nM on Cdk6/CyclinD3 and 4.2 nM at Cdk4/CyclinD1.
For `CN(CC(=O)O)C1CCN(c2ccc(Nc3ncc4c5ccncc5n(C5CCCC5)c4n3)nc2)CC1` [Example 471], the IC50 is 18 nM at Cdk6/CyclinD3 and 4.1 nM on Cdk4/CyclinD1.
`c1cc2c3cnc(Nc4ccc(N5CCCC5)nn4)nc3n(C3CCCC3)c2cn1` [Example 111]: the IC50 at Cdk6/CyclinD3 was found to be 19.7 nM; at Cdk4/CyclinD1, 4.4 nM.
Consider `C[C@H]1CN(c2ccc(Nc3ncc4c5ccncc5n(C5CCC5)c4n3)nc2)CCN1` [Example 344], for which the results for the IC50 at Cdk6/CyclinD3 and on Cdk4/CyclinD1 were 10 nM and 16 nM, respectively.
With `c1ccc(-n2c3cnccc3c3cnc(Nc4ccc(N5CCNCC5)cn4)nc32)cc1` [Example 14, 9-Phenyl-N-(5-(1-piperazinyl)-2-pyridinyl)-9H-pyrido[4′,3′:4,5]pyrrolo[2,3-d]pyrimidin-2-amine], the IC50 was found to be 8 nM on Cdk6/CyclinD3 and 2.2 nM at Cdk4/CyclinD1.
For `OCCCNC1CCN(c2ccc(Nc3ncc4c5ccncc5n(C5CCCC5)c4n3)nn2)CC1` [Example 453], the IC50 was determined as 13 nM on Cdk6/CyclinD3 and 4.6 nM at Cdk4/CyclinD1.
